Patent publication US20020055171A1, “PREPARATION OF BIOLOGICALLY ACTIVE 3-METHYLENEOXINDOLE AND DEFINITION OF ITS APPLICATION IN STIMULATION OF PLANT GROWTH AND TISSUE REPAIR” (priority 1998, published 2002)

Columns and labels:
[1] = system: Parenchyma tissue from heads of romaine lettuce; test: Formation of callus tissue in lettuce parenchyma sections; assay type: cell-based; settings: 7 days at 26 degrees in the dark, average initial weight 0.04 g
Source text: Note: Parenchyma tissue was obtained from heads of romaine lettuce. Cylinders measuring 5 mm in diameter and 20 mm in length were removed with a cork borer from the stalks of lettuce heads. The cylinders were sterilized in a 10% solution of commercial bleach (sodium hypochlorite). Three (3) mm wide circular sections were removed from the sterilized cylinders and 10 sections were placed in petri dishes containing various concentrations of auxins and MO formulated in sterilized agar/mineral salts/kinin media. The sections were incubated at 26 degrees in the dark for seven (7) days. At the end of the incubation period, the callus tissue in each treatment was weighed and the average weight of each section was recorded. The average initial weight of the sections was 0.04 g.

[2] = system: cuttings from 12-day old bean plants; test: Root formation in bean cuttings planted in treated vermiculite; assay type: in vivo; settings: for Average dry wt (grams) of root mass (14 days after treatment): 10 cuttings per treatment
Experimental: Legend to Table I. Ten (10) cuttings were used per treatment. Cuttings were obtained from 12-day old bean plants by excising each plant above the cotyledonery node. The cuttings were planted in vermiculite treated with various concentrations of the indicated compounds. Fourteen days after treatment, the portion of the cutting subtending the root mass was removed and dried for 48 hrs. at 50° C.

hardwood trees = test: Wound healing (callus formation) on sawed-off branches of hardwood trees, lanolin paste; assay type: in vivo; settings: final concentration 10^−5M, compared with IAA
Source text: Use of pure solutions of MO to stimulate healing in plants by aiding in the formation of callus tissue at the wound site. This would have the prophylactic effect of preventing infection in wounded trees. Application of MO in a solution, gel or lanolin paste preparation induces rapid formation of protective callus tissue. Refer to Table II for data summary. Large branches of hardwood trees were sawed off and treated with either IAA or MO prepared in lanolin paste.

plants = test: Physiological (auxin) responses of plants compared with IAA; settings: MO obtained from purified 3-Brox
Source text: It is well known that at suitable concentrations, IAA can stimulate the growth of excised stem segments, promote root development in cuttings, and in combination with another group of plant growth substances known as kinins, can regenerate intact plants from single cells or meristematic tissue.

[3] = system: explants of various plant species; test: Stage III (rooting) micropropagation of explants; assay type: cell-based; settings: Stage III (rooting) medium
Source text: Stage III micropropagation of various plant species using IAA or MO as auxin source. Explants were placed in various concentrations of sterilized IAA or MO formulated in sterilized agar/mineral salts/kinnin media

[4] = system: cuttings from tomatoes, begonias, African violets, roses, soybeans and peas; test: Root formation in cuttings from various plants; assay type: in vivo
Source text: Use of MO and its solutions prepared by novel methods for stimulation of root formation in plant cuttings and as replacement for IAA or synthetic auxins in plant tissue culture. […] Refer to FIG. 2 for typical response of cuttings to test compounds and Table I for data summary.

Hosta = test: Micropropagation of Hosta in Stage I, II and III media; assay type: cell-based
Source text: Photographic evidence showing the comparative response of explants to IAA and MO in Stage II and Stage III growth media is available on request. A description of the photos is provided herein.

[5] = system: explants of Nicotiana tobaccum, Ficus benjamina, Kalanchoe, and Hosta; test: Stage II (multiplication) micropropagation of explants; assay type: cell-based
Source text: MO produced an equivalent amount of growth at 10^−8 M and maximal growth at 10^−7 M.
Stage II and Stage III micropropagation of various plant species using IAA or MO as auxin source. Explants were placed in various concentrations of sterilized IAA or MO formulated in sterilized agar/mineral salts/kinnin media.

[6] = Stage II (multiplication) medium

| SMILES | Weight in grams of Callus tissue ([1]; 10^−4 moles/L) | Weight in grams of Callus tissue ([1]; 10^−5 moles/L) | Weight in grams of Callus tissue ([1]; 10^−6 moles/L) | Weight in grams of Callus tissue ([1]; 10^−7 moles/L) | Weight in grams of Callus tissue ([1]; 10^−8 moles/L) | Emergence of roots (No. of days after treatment) ([2]; 10^−4M) | Average dry wt (grams) of root mass (14 days after treatment) ([2]; 10^−4M) | Average dry wt (grams) of root mass (14 days after treatment) ([2]; 10^−5M) | Emergence of roots (No. of days after treatment) ([2]; 10^−6M) | Average dry wt (grams) of root mass (14 days after treatment) ([2]; 10^−6M) | concentration required to produce maximal growth [5, 6] | Emergence of roots (No. of days after treatment) ([2]; 10^−5M) | other results |
| --- | --- | --- | --- | --- | --- | --- | --- | --- | --- | --- | --- | --- | --- |
| O=C(O)CCCc1c[nH]c2ccccc12 [IBA, indolebutyric acid] | 0.05 g | 0.18 g | 0.70 g | 0.55 g | 0.12 g | 9 days | 5 grams | 7 grams | 5 days | 7 grams |  |  |  |
| C=C1C(=O)Nc2ccccc21 [MO, 3-methyleneoxindole] | 0.02 g | 0.15 g | 1.5 g | 1.95 g | 1.75 g |  |  |  | 4 days | 11 grams | 10^−7 M |  | healing of wound by callus formation (hardwood trees): healed rapidly by forming callus tissue over the wound; Emergence of roots (No. of days after treatment) ([2]; 10^−7M): 4 days; Average dry wt (grams) of root mass (14 days after treatment) ([2]; 10^−7M): 13 grams; Emergence of roots (No. of days after treatment) ([2]; 10^−8M): 6 days; Average dry wt (grams) of root mass (14 days after treatment) ([2]; 10^−8M): 10 grams; fold as effective as IAA in eliciting physiological responses (plants): 100-1000 fold; fold more effective than IAA and the synthetic auxins [3]: 1,000 fold; root formation compared with IAA, napthaleneacetic acid and indolebutyric acid [4]: more profuse roots in a much shorter time and at significantly lower concentrations; effectiveness compared with synthetic auxins (Hosta): far more effective than the synthetic auxins; concentration producing growth equivalent to IAA at its most effective concentration [5, 6]: 10^−8 M; fold more effective than IAA and the synthetic auxins ([5]; Stage II medium): 1,000 fold |
| O=C(O)Cc1c[nH]c2ccccc12 [IAA, Indole-3-acetic acid] | 0.08 g | 0.25 g | 1.2 g | 0.80 g | 0.40 g | 7 days | 8 grams | 10 grams | 9 days | 7 grams | 10^−5 M | 7 days |  |
| O=C(O)Cc1cccc2ccccc12 [NAA, napthaleneacetic acid] | 0.06 g | 0.15 g | 0.85 g | 0.60 g | 0.20 g | 8 days | 5 grams | 7 grams | 8 days | 2 grams |  | 9 days |  |
